Results on 26 compounds are retold here after patent US11649238B2, “Substituted pyrazolo[1,5-a]pyrimidines as PI4K inhibitors” (GLAXOSMITHKLINE INTELLECTUAL PROPERTY DEVELOPMENT LIMITED, priority 2018, dated 2023).

Each structure is given as a SMILES string.

The target of the experiment is T1, human PI4KIII-beta 13-828 (D316-330) (Homo sapiens, UniProt Q9UBF8).
T1 construct: human PI4KIII-beta 13-828 (D316-330)
T1 sequence (Q9UBF8 1-801 isoform Q9UBF8-2): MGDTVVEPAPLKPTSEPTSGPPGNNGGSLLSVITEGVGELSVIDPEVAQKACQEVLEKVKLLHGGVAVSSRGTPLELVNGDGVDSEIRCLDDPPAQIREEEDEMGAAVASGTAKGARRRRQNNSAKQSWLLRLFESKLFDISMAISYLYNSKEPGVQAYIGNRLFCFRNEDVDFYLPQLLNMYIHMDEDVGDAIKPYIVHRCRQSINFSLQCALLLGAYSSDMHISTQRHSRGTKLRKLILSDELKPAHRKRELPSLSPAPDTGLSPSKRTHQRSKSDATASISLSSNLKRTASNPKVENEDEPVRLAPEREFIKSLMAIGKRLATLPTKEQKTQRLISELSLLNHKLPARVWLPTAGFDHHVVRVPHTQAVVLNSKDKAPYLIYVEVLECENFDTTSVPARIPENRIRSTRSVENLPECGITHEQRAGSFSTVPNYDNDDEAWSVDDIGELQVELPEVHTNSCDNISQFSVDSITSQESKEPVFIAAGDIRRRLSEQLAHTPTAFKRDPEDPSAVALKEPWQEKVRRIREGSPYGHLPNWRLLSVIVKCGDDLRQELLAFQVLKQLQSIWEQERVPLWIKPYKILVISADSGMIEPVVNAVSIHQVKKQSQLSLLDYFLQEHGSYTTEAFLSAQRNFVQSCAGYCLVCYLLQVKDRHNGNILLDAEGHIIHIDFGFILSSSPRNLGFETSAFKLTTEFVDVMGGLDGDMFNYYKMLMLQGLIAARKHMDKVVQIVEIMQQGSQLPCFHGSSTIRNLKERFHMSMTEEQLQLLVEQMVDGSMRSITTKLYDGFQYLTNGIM
In words: PI4 KB Activity Assay (ADP-GLO Kinase assay). Type of experiment: biochemical. The conditions noted are these: 1 mM ATP, 60 μM phosphatidylinositol, 3 hours at room temperature; read-out: mean pIC50 (converted). As to the method: The in vitro inhibition of human PI4KIII-beta 13-828 (D316-330) activity was determined by using the ADP-GLO Kinase assay kit from Promega. Inhibitors were dissolved in 100% DMSO at a concentration of 1 mM. Dilutions were prepared in 100% DMSO using a 1 in 3 serial step dilution. A 60 nL stamp from an 11-point titration was transferred to a white low volume 384 well Greiner assay plate ensuring a final DMSO concentration of 1% across the plate and a top final concentration of inhibitor of 10 μM. The PI4KIII-beta assay contained 25 mM Hepes pH 7.5 (NaOH), 10 mM MgCl2, 0.5 mM EGTA, 0.1% Triton X-100, 2 mM TCEP, and 0.1 mg/ml BSA, 1 mM ATP, 60 μM phosphatidylinositol, and 1.5 nM human PI4K-beta 13-828 (D316-330) in a total volume of 6 μL. The assay was initiated with the addition of enzyme, covered, and incubated at room temperature for 3 hours. The assays were stopped with the addition of 6 μl ADP-GLO Reagent containing 0.1% CHAPS to deplete the unconsumed ATP. The plates were incubated at room temperature for 60 min and then 12 μl of the Kinase Detection Reagent containing 0.1% CHAPS was added to convert ADP to ATP and introduce luciferase and luciferin. After 40 min incubation at room temperature the luminescent signal was read on a BMG Labtech PHERAstar FS with the following settings; Gain 3600, Focal height 13.7 mm, measurement interval time 1 s, Settling time 0.2 s. The inhibitory effect of the PI4K-beta activity of the compounds was evaluated by the IC50 of the response relative to the high, no compound, and low, no enzyme, controls by fitting to the four parameter dose response question.
In the case of `Cc1ccc(-c2c(C)nn3c(NCc4cccc(-c5nccn5C)c4)cc(C(C)(C)O)nc23)cc1C(=O)N(C)C1CCOCC1` [Compound 45], the IC50 is ≤ 3.98 nM.
In the case of `Cc1ccc(-c2c(C)nn3c(NCc4cccc(-n5cccn5)c4)cc(C(C)(C)O)nc23)cc1C(=O)N1CC[C@H](O)C1` [Compound 50], the IC50 was ≤ 3.98 nM.
For the compound `CCN(CCO)C(=O)c1cc(-c2c(C)nn3c(NCc4cccc(-c5nccn5C)c4)cc(C(C)O)nc23)ccc1OC` (centres unmarked) [Compound 11], the IC50 is ≤ 3.98 nM.
The figure for `CCC(O)c1cc(NCc2cccc(-c3nccn3C)c2)n2nc(C)c(-c3ccc(OC)c(S(=O)(=O)CCO)c3)c2n1` (single isomer, unassigned) [Compound 75, 1-(3-(3-((2-Hydroxyethyl)sulfonyl)-4-methoxyphenyl)-2-methyl-7-((3-(1-methyl-1H-imidazol-2-yl)benzyl)amino)pyrazolo[1,5-a]pyrimidin-5-yl)propan-1-ol] is ≤ 3.98 nM.
The result for `COc1ccc(-c2c(C)nn3c(NCc4cccc(-c5nccn5C)c4)cc(C(C)CO)nc23)cc1S(=O)(=O)CCO` (centres unmarked) [Compound 53, 2-(3-(3-((2-Hydroxyethyl)sulfonyl)-4-methoxyphenyl)-2-methyl-7-((3-(1-methyl-1H-imidazol-2-yl)benzyl)amino)pyrazolo[1,5-a]pyrimidin-5-yl)propan-1-ol] reads ≤ 3.98 nM; that for `COc1ccc(-c2c(C)nn3c(NCc4cccc(-c5nccn5C)c4)cc(C(O)C(C)C)nc23)cc1S(=O)(=O)CCO` (centres unmarked) [Compound 5], ≤ 3.98 nM.
The result for `COc1ccc(-c2c(C)nn3c(NCc4cccc(-c5nccn5C)c4)cc(C(C)(C)O)nc23)cc1C(=O)N(C)C(C)CO` (centres unmarked) [Compound 42] reads ≤ 3.98 nM.
In the case of `CCC(O)c1cc(NCc2cccc(-c3nccn3C)c2)n2nc(C)c(-c3ccc(OC)c(S(=O)(=O)CCO)c3)c2n1` (centres unmarked) [Compound 3], the IC50 is ≤ 3.98 nM.
The figure for `COc1ccc(-c2c(C)nn3c(NCc4cccc(-c5nccn5C)c4)cc(C(C)(C)CO)nc23)cc1S(=O)(=O)CCO` [Compound 56, 2-(3-(3-((2-Hydroxyethyl)sulfonyl)-4-methoxyphenyl)-2-methyl-7-((3-(1-methyl-1H-imidazol-2-yl)benzyl)amino)pyrazolo[1,5-a]pyrimidin-5-yl)-2-methylpropan-1-ol] is ≤ 3.98 nM.
The result for `COc1ccc(-c2c(C)nn3c(NCc4cccc(-c5nccn5C)c4)cc(C(C)(C)O)nc23)cc1C(=O)N1CCC[C@@H]1CO` [Compound 36, (R)-(2-(hydroxymethyl)pyrrolidin-1-yl)(5-(5-(2-hydroxypropan-2-yl)-2-methyl-7-((3-(1-methyl-1H-imidazol-2-yl)benzyl)amino)pyrazolo[1,5-a]pyrimidin-3-yl)-2-methoxyphenyl)methanone] reads ≤ 3.98 nM; that for `Cc1nn2c(NCc3cccc(-n4cccn4)c3)cc(C(C)(C)O)nc2c1-c1ccc(Cl)c(C(=O)N(C)CCO)c1` [Compound 48], ≤ 3.98 nM; that for `COc1ccc(-c2c(C)nn3c(NCc4cccc(-n5cccn5)c4)cc(C(C)(C)O)nc23)cc1C(=O)N(C)CCO` [Compound 46], ≤ 3.98 nM.
`Cc1nn2c(NCc3cccc(-c4nccn4C)c3)cc(C(C)(C)O)nc2c1-c1ccc(Cl)c(C(=O)N2CCC[C@@H]2CO)c1` [Compound 24]: the IC50 was ≤ 3.98 nM.
The result for `Cc1ccc(-c2c(C)nn3c(NCc4cccc(-c5nccn5C)c4)cc(C(C)(C)O)nc23)cc1C(=O)N1CC[C@H](O)C1` [Compound 29, (S)-(5-(5-(2-hydroxypropan-2-yl)-2-methyl-7-((3-(1-methyl-1H-imidazol-2-yl)benzyl)amino)pyrazolo[1,5-a]pyrimidin-3-yl)-2-methylphenyl)(3-hydroxypyrrolidin-1-yl)methanone] reads ≤ 3.98 nM; that for `COc1ccc(-c2c(C)nn3c(NCc4cccc(-c5nccn5C)c4)cc(C(C)(C)O)nc23)cc1C(=O)N(C)CC(C)O` (centres unmarked) [Compound 82, 5-(5-(2-Hydroxypropan-2-yl)-2-methyl-7-((3-(1-methyl-1H-imidazol-2-yl)benzyl)amino)pyrazolo[1,5-a]pyrimidin-3-yl)-N-(2-hydroxypropyl)-2-methoxy-N-methylbenzamide], ≤ 3.98 nM.
On to `CCC(CO)c1cc(NCc2cccc(-c3nccn3C)c2)n2nc(C)c(-c3ccc(C)c(C(=O)N(C)CCCO)c3)c2n1` (centres unmarked) [Compound 65, 5-(5-(1-Hydroxybutan-2-yl)-2-methyl-7-((3-(1-methyl-1H-imidazol-2-yl)benzyl)amino)pyrazolo[1,5-a]pyrimidin-3-yl)-N-(3-hydroxypropyl)-N,2-dimethylbenzamide], for which the IC50 was ≤ 3.98 nM.
The figure for `Cc1nn2c(NCc3cccc(-c4nccn4C)c3)cc(C(C)(C)O)nc2c1-c1ccc(Cl)c(C(=O)N(C)CCO)c1` [Compound 37, 2-Chloro-N-(2-hydroxyethyl)-5-(5-(2-hydroxypropan-2-yl)-2-methyl-7-((3-(1-methyl-1H-imidazol-2-yl)benzyl)amino)pyrazolo[1,5-a]pyrimidin-3-yl)-N-methylbenzamide] is ≤ 3.98 nM; for `Cc1ccc(-c2c(C)nn3c(NCc4cccc(-c5nccn5C)c4)cc(C(C)(C)O)nc23)cc1C(=O)N1CCC[C@@H]1CO` [Compound 25, (R)-(2-(hydroxymethyl)pyrrolidin-1-yl)(5-(5-(2-hydroxypropan-2-yl)-2-methyl-7-((3-(1-methyl-1H-imidazol-2-yl)benzyl)amino)pyrazolo[1,5-a]pyrimidin-3-yl)-2-methylphenyl)methanone] it is ≤ 3.98 nM.
The result for `Cc1ccc(-c2c(C)nn3c(NCc4cccc(-c5nccn5C)c4)cc(C(C)(C)O)nc23)cc1C(=O)N(C)C(C)CO` (centres unmarked) [Compound 40] reads ≤ 3.98 nM; that for `COc1ccc(-c2c(C)nn3c(NCc4cccc(-c5nccn5C)c4)cc(C(C)(C)O)nc23)cc1S(=O)(=O)CCO` [Compound 6, 2-(3-(3-((2-Hydroxyethyl)sulfonyl)-4-methoxyphenyl)-2-methyl-7-((3-(1-methyl-1H-imidazol-2-yl)benzyl)amino)pyrazolo[1,5-a]pyrimidin-5-yl)propan-2-ol], ≤ 3.98 nM.
For the compound `COc1ccc(-c2c(C)nn3c(NCc4cccc(-c5nccn5C)c4)cc(C(C)(C)O)nc23)cc1C(=O)N(C)CC(C)O` (single isomer, unassigned) [Compound 83, 5-(5-(2-Hydroxypropan-2-yl)-2-methyl-7-((3-(1-methyl-1H-imidazol-2-yl)benzyl)amino)pyrazolo[1,5-a]pyrimidin-3-yl)-N-(2-hydroxypropyl)-2-methoxy-N-methylbenzamide], the IC50 is ≤ 3.98 nM.
For the compound `Cc1ccc(-c2c(C)nn3c(NCc4cccc(-c5nccn5C)c4)cc(C(C)(C)O)nc23)cc1C(=O)N(C)C1CCOC1` (centres unmarked) [Compound 59, 5-(5-(2-Hydroxypropan-2-yl)-2-methyl-7-((3-(1-methyl-1H-imidazol-2-yl)benzyl)amino)pyrazolo[1,5-a]pyrimidin-3-yl)-N,2-dimethyl-N-(tetrahydrofuran-3-yl)benzamide], the IC50 is ≤ 3.98 nM.
For the compound `COc1ccc(-c2c(C)nn3c(NCc4cccc(-c5nccn5C)c4)cc(C(C)O)nc23)cc1C(=O)N(C)CCCO` (centres unmarked) [Compound 9, 5-(5-(1-Hydroxyethyl)-2-methyl-7-((3-(1-methyl-1H-imidazol-2-yl)benzyl)amino)pyrazolo[1,5-a]pyrimidin-3-yl)-N-(3-hydroxypropyl)-2-methoxy-N-methylbenzamide], the IC50 is ≤ 3.98 nM.
In the case of `Cc1ccc(-c2c(C)nn3c(NCc4cccc(-c5nccn5C)c4)cc(C(C)(C)O)nc23)cc1C(=O)N1CCC(O)C1` (centres unmarked) [Compound 41], the IC50 is ≤ 3.98 nM.
On to `CCN(CCO)C(=O)c1cc(-c2c(C)nn3c(NCc4cccc(-c5nccn5C)c4)cc(C(C)O)nc23)ccc1Cl` (centres unmarked) [Compound 15, 2-chloro-N-ethyl-N-(2-hydroxyethyl)-5-(5-(1-hydroxyethyl)-2-methyl-7-((3-(1-methyl-1H-imidazol-2-yl)benzyl)amino)pyrazolo[1,5-a]pyrimidin-3-yl)benzamide], for which the IC50 was ≤ 3.98 nM.
The result for `Cc1ccc(-c2c(C)nn3c(NCc4cccc(-c5nccn5C)c4)cc(C(C)(C)CO)nc23)cc1C(=O)N(C)CCCO` [Compound 55, 5-(5-(1-Hydroxy-2-methylpropan-2-yl)-2-methyl-7-((3-(1-methyl-1H-imidazol-2-yl)benzyl)amino)pyrazolo[1,5-a]pyrimidin-3-yl)-N-(3-hydroxypropyl)-N,2-dimethylbenzamide] reads ≤ 3.98 nM.
